{"source": "patent US11492629B2", "about": "“Extra-chromosomal circular DNA-mediated engineering of plant traits” (Kansas State University Research Foundation, priority 2019, dated 2022)", "type_in_all_cases": "in vivo, Amaranthus palmeri", "key": {"[1]": {"tested_on": "progeny of GR A. palmeri plants (>80-100 EPSPS copies)", "assay": "Response to 1x glyphosate of progeny from randomly mated glyphosate-resistant (GR) plants grown without selection", "from_the_text": "(§1) To investigate the evolution of resistance to glyphosate in response to glyphosate selection pressure, we exposed GS plants (<20 EPSPS copies) to glyphosate for one generation to determine the EPSPS copy number and eccDNA variation in each generation and assess the possibility of evolution of resistance to continuous exposure to glyphosate via eccDNA containing EPSPS gene amplification. This process can be repeated for 6 to 8 generations. We also initiated experiments to examine the reversal of glyphosate resistance to susceptibility in the absence of glyphosate selection pressure by growing GR plants (>80-100 EPSPS copies) in the absence of glyphosate selection and generating progenies by random mating. This process can be repeated for 6 to 8 generations. A portion of progenies will be screened for susceptibility or resistance to glyphosate and determine the EPSPS gene copies and presence or absence of eccDNA in each generation.\nThe progeny generated from random mating of GR plants (>80-100 EPSPS copies) were used in this study. The seed collected from two GR plants (allowed to mate randomly) were planted and seedlings were generated. Approximately 100 plants from each GR plant were grown in the greenhouse without exposure to glyphosate for seed production. Additionally, approximately 127 seedlings from each of the above GR plant were also grown separately and treated with 1× dose of glyphosate to assess their response. Leaf tissue from 40 plants each was also collected for only EPSPS copy number analysis."}, "[2]": {"tested_on": "GS A. palmeri plants (<20 EPSPS copies)", "assay": "Glyphosate selection of glyphosate-susceptible (GS) seedlings in greenhouse, plant survival", "from_the_text": "as §1\nApproximately 1,009 seedlings were grown in greenhouse and treated with 0.25, 0.5 and 1× glyphosate (1×: 840 g ae/ha). The survivors have been selected for seed production of G-2 seed. Leaf tissue from 40 plants were collected for copy number analysis before the treatment with glyphosate. Additionally, the leaf samples were also collected from plants (at least 5) that survived glyphosate application."}, "A. palmeri plants": {"tested_on": "A. palmeri plants", "assay": "Whole-plant glyphosate treatment of field-collected A. palmeri, injury versus untreated check", "settings": "868 g ae ha plus 2% (w/v) ammonium sulfate", "from_the_text": "A. palmeri plants used in this study were generated from seeds collected from a field near Manhattan, Kans., USA, where there was incident of lack of control of this population with glyphosate application in the previous season. This field was exposed to frequent applications of glyphosate in Roundup Ready soybean, grown in rotation. Seed of A. palmeri was randomly sampled from ten plants and pooled. Sixty seedlings from the above sample along with a known glyphosate-susceptible (GS) A. palmeri were germinated and seedlings were transplanted individually into Miracle-Gro potting mix (Marysville, Ohio) in 10 cm×10 cm×10 cm plastic pots and watered from top in a greenhouse (25/20° C. temperature; 15/9 h light day/night, supplemented with […] illumination using sodium vapor lamps). At least 20 plants (10 to 12 cm tall) were treated separately with field use rate [868 g ae ha^−1 plus 2% (w/v) ammonium sulfate] or twice the field use rate of glyphosate. […] Plant survival was assessed four weeks after treatment.\nIn response to glyphosate treatment [868 g ae ha′ plus 2% (w/v) ammonium sulfate], plants showing injury levels of high (>80%) and low (<30%) in comparison to untreated check were grouped as GS and glyphosate-resistant (GR), respectively. […] DNA was quantified on Nanodrop Spectrophotometer."}, "[3]": {"settings": "seedlings from plant GR1, 1x glyphosate, 127 plants treated"}, "[4]": {"settings": "seedlings from plant GR2, 1x glyphosate, 122 plants treated"}, "[5]": {"settings": "glyphosate rate 0.25X (1X: 840 g ae/ha), 160 treated plants"}, "[6]": {"settings": "glyphosate rate 0.5X (1X: 840 g ae/ha), 430 treated plants"}, "[7]": {"settings": "glyphosate rate 1X (1X: 840 g ae/ha), 419 treated plants"}}, "data": [{"smiles": "O=C(O)CNCP(=O)(O)O", "note": "[Glyphosate, N-(phosphonomethyl) glycine]", "values": [{"measurement": "% survival", "setting": "[1]; seedlings from plant GR1, 1x glyphosate", "value": 68, "unit": "%"}, {"measurement": "Alive", "setting": "[1]; [3]", "value": 86}, {"measurement": "Dead", "setting": "[1]; [3]", "value": 41}, {"measurement": "% survival", "setting": "[1]; seedlings from plant GR2, 1x glyphosate", "value": 72, "unit": "%"}, {"measurement": "Alive", "setting": "[1]; [4]", "value": 88}, {"measurement": "Dead", "setting": "[1]; [4]", "value": 34}, {"measurement": "% survival", "setting": "[2]; glyphosate rate 0.25X (1X: 840 g ae/ha)", "value": 16, "unit": "%"}, {"measurement": "Alive", "setting": "[2]; [5]", "value": 26}, {"measurement": "Dead", "setting": "[2]; [5]", "value": 134}, {"measurement": "% survival", "setting": "[2]; glyphosate rate 0.5X (1X: 840 g ae/ha)", "value": 4, "unit": "%"}, {"measurement": "Alive", "setting": "[2]; [6]", "value": 18}, {"measurement": "Dead", "setting": "[2]; [6]", "value": 412}, {"measurement": "% survival", "setting": "[2]; glyphosate rate 1X (1X: 840 g ae/ha)", "value": 3, "unit": "%"}, {"measurement": "Alive", "setting": "[2]; [7]", "value": 13}, {"measurement": "Dead", "setting": "[2]; [7]", "value": 406}, {"measurement": "injury level in comparison to untreated check", "setting": "A. palmeri plants; plants grouped as GR (low injury)", "value": "< 30", "unit": "%"}, {"measurement": "injury level in comparison to untreated check", "setting": "A. palmeri plants; plants grouped as GS (high injury)", "value": "> 80", "unit": "%"}]}]}
